In patent US4103011A, “Novel penicillin compounds and process for preparation thereof” (priority 1976, dated 1978):
Where a name gives a salt, the structure may show the parent alone. Read-outs that look alike come from different tables or passages of the source.

Key:
[1] = test system: Corynebacterium pyogenes C-21; test: In vitro antibacterial activity (MIC); assay type: cell-based; conditions: Rhodococcus (subgen. Prescottella) equi, C21, read-out: minimum inhibitory concentration (MIC)
Description: (§1) In vitro antibacterial activity against 20 strains of bacteria
(§2) The numerals in the table show minimum inhibitory concentrations (MIC)

[2] = test system: Enterobacter cloacae P-2540; test: In vitro antibacterial activity (MIC); assay type: cell-based; conditions: Enterobacter cloacae, P2540, read-out: minimum inhibitory concentration (MIC)
Description: as §1, §2

Escherichia coli P-140a = test: In vitro antibacterial activity (MIC); assay type: cell-based
Description: as §1, §2

Escherichia coli P-5101 = test: In vitro antibacterial activity (MIC); assay type: cell-based; conditions: P5101; Escherichia coli P-5101; read-out: minimum inhibitory concentration (MIC)
Description: as §1, §2

[3] = test system: Klebsiella pneumoniae No. 13; test: In vitro antibacterial activity (MIC); assay type: cell-based; conditions: Klebsiella pneumoniae, NO.13, read-out: minimum inhibitory concentration (MIC)
Description: as §1, §2

Proteus mirabilis P-2381 = test: In vitro antibacterial activity (MIC); assay type: cell-based; conditions: Proteus mirabilis, P2381, read-out: minimum inhibitory concentration (MIC)
Description: as §1, §2

Proteus morganii Kono = test: In vitro antibacterial activity (MIC); assay type: cell-based; conditions: Morganella morganii, read-out: minimum inhibitory concentration (MIC)
Description: as §1, §2

Proteus rettgeri P-2503 = test: In vitro antibacterial activity (MIC); assay type: cell-based; conditions: Providencia rettgeri, P2503; Proteus rettgeri P-2503; read-out: minimum inhibitory concentration (MIC)
Description: as §1, §2

[4] = test system: Pseudomonas aeruginosa No.12; test: In vitro antibacterial activity (MIC); assay type: cell-based; conditions: Pseudomonas aeruginosa, NO.12, read-out: minimum inhibitory concentration (MIC)
Description: as §1, §2

[5] = test system: Pseudomonas aeruginosa Tsuchijima; test: In vitro antibacterial activity (MIC); assay type: cell-based; conditions: Pseudomonas aeruginosa Tsuchijima; read-out: minimum inhibitory concentration (MIC)
Description: as §1, §2

[6] = test system: Salmonella enteritidis No. 1891; test: In vitro antibacterial activity (MIC); assay type: cell-based; conditions: Salmonella enterica; Salmonella enteritidis No. 1891; read-out: minimum inhibitory concentration (MIC)
Description: as §1, §2

[7] = test system: Salmonella typhimurium S-9; test: In vitro antibacterial activity (MIC); assay type: cell-based; conditions: Salmonella enterica; Salmonella typhimurium S-9; read-out: minimum inhibitory concentration (MIC)
Description: as §1, §2

[8] = test system: Serratia mercescens IFO 3736; test: In vitro antibacterial activity (MIC); assay type: cell-based; conditions: IFO3736; Serratia mercescens IFO 3736; read-out: minimum inhibitory concentration (MIC)
Description: as §1, §2

Shigella flexneri 2a = test: In vitro antibacterial activity (MIC); assay type: cell-based; conditions: read-out: minimum inhibitory concentration (MIC)
Description: as §1, §2

[9] = test system: Shigella flexneri 4a P-330; test: In vitro antibacterial activity (MIC); assay type: cell-based; conditions: 4AP330, read-out: minimum inhibitory concentration (MIC)
Description: as §1, §2

[10] = test system: Staphylococcus aureus 209P JC-1; test: In vitro antibacterial activity (MIC); assay type: cell-based; conditions: Staphylococcus aureus 209P JC-1; read-out: minimum inhibitory concentration (MIC)
Description: as §1, §2

[11] = test system: Staphylococcus aureus No. 50774; test: In vitro antibacterial activity (MIC); assay type: cell-based; conditions: Staphylococcus aureus No. 50774; read-out: minimum inhibitory concentration (MIC)
Description: as §1, §2

[12] = test system: Streptococcus faecalis P-2473; test: In vitro antibacterial activity (MIC); assay type: cell-based; conditions: Enterococcus faecalis, P2473, read-out: minimum inhibitory concentration (MIC)
Description: as §1, §2

[13] = test system: Streptococcus pyogenes 65A; test: In vitro antibacterial activity (MIC); assay type: cell-based; conditions: Streptococcus pyogenes 65A; read-out: minimum inhibitory concentration (MIC)
Description: as §1, §2

[14] = test system: Staphylococcus aureus No. 50774; test: In vivo efficacy against systemic infection; design: species or system male mice (ddY); conditions: NO.50774, in Mus musculus, 336 h, sc, twice, about 5 minutes and 6 hours after infection, read-out: ED50 (median effective dose)
Outline: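 Male ddY mice (~20 g) infected intravenously with 50 to 100 LD50 (about 5 × 10^8 cells/mouse) of S. aureus No. 50774 in saline. Compounds in water or aqueous sodium carbonate (pH 8-9) dosed twice, about 5 minutes and 6 hours post-infection; ED50 (mg/kg) by Behrens-Kaerber method.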

[15] = test system: Pseudomonas aeruginosa No. 12; test: In vivo efficacy against systemic infection; design: species or system male mice (ddY); conditions: for ED50: NO.12, in Mus musculus
Outline: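 Male ddY mice (about 20 g) infected intraperitoneally with a Pseudomonas aeruginosa No. 12 suspension. Compounds in deionized water were given twice, about 5 minutes and 6 hours after infection. Effective dose calculated by the Behrens-Kaerber method.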

Plasma level in mice = assay type: in vivo, male mice (ddY)
Protocol: The contents of the vials (No. A) obtained in Example 17 were dissolved in deionized water to form solutions of compound 1 in a concentration of 100 mg/ml. The solutions were intramuscularly (im) administered to twenty four male mice (ddY) having an average body weight of 26 g at a dose of 25 mg/kg.
Blood was taken by cardiac puncture from four mice ech 0.25, 0.5, 1, 2, 3 and 4 hours after administration, and centrifuged individually to separate the plasma.
Drug levels were determined by the thin-layer cup-plate method using Escherichia coli Kp as an indicator organism. Plasma was appropriately (to more than 10 times) diluted with a 0.067 M phosphate buffer having a pH of 7.0. A standard calibration line was prepared in the same buffer.

in vivo = conditions: mouse

SMILES: CC1(C)S[C@@H]2[C@H](NC(=O)[C@H](NC(=O)c3c[nH]c4nc(N5CCN(C=O)CC5)ncc4c3=O)c3ccc(O)cc3)C(=O)N2[C@H]1C(=O)O [Compound 1, D-α-[5,8-Dihydro-2-(4-formyl-1-piperazinyl)-5-oxopyrido[2,3-d]pyrimidine-6-carboxamido]-p-hydroxybenzyl-penicillin sodium salt]
- MIC [1]: 3.13 µg/mL
- MIC [2]: 6.25 µg/mL
- minimum inhibitory concentration (MIC) (Escherichia coli P-140a): 12.5 µg/mL
- MIC (Escherichia coli P-5101): 1.56 µg/mL
- MIC [3]: 12.5 µg/mL
- MIC (Proteus mirabilis P-2381): 3.13 µg/mL
- MIC (Proteus morganii Kono): 6.25 µg/mL
- MIC (Proteus rettgeri P-2503): 25 µg/mL
- MIC [4]: 3.13 µg/mL
- MIC [5]: 0.78 µg/mL
- MIC [6]: 0.78 µg/mL
- MIC [7]: 0.78 µg/mL
- MIC [8]: 6.25 µg/mL
- MIC (Shigella flexneri 2a): 3.13 µg/mL
- MIC [9]: 3.13 µg/mL
- MIC [10]: 0.78 µg/mL
- MIC [11]: 1.56 µg/mL
- MIC [12]: 3.13 µg/mL
- MIC [13]: 0.006 µg/mL
- ED50 [14]: 2.1 mg/kg
- ED50 ([15]; iv, twice, about 5 minutes and 6 hours after infection, read-out: ED50 (median effective dose)): 4.1 mg/kg
- ED50 ([15]; parenteral administration, compounds 1 and 2 together, read-out: ED50): 2 to 6 mg/kg
- ED50 ([15]; sc, twice, about 5 minutes and 6 hours after infection, read-out: ED50 (median effective dose)): 2.1 mg/kg
- antibacterial activity compared with compounds J and H (in words) ([15]; parenteral administration): far superior antibacterial activity
- antibacterial activity relative to compounds B and C (times as high) ([15]; parenteral administration): 3 to 25 times
- antibacterial activity relative to compounds D and E (times as high) ([15]; parenteral administration): 6 to 20 times
- plasma level (in words) (Plasma level in mice; after parenteral administration): much the same concentration as the MIC
- concentration at 0.25 h (Plasma level in mice; mouse, plasma, 25 mg/kg, im, single dose, 0.25 hour, read-out: Average plasma conc.): 27400 ng/mL
- concentration at 0.5 h (Plasma level in mice; mouse, plasma, 25 mg/kg, im, single dose, 0.5 hour, read-out: Average plasma conc.): 21500 ng/mL
- concentration at 1 h (Plasma level in mice; mouse, plasma, 25 mg/kg, im, single dose, 1 hour, read-out: Average plasma conc.): 15600 ng/mL
- concentration at 2 h (Plasma level in mice; mouse, plasma, 25 mg/kg, im, single dose, 2 hour, read-out: Average plasma conc.): 9570 ng/mL
- concentration at 3 h (Plasma level in mice; mouse, plasma, 25 mg/kg, im, single dose, 3 hour, read-out: Average plasma conc.): 4010 ng/mL
- concentration at 4 h (Plasma level in mice; mouse, plasma, 25 mg/kg, im, single dose, 4 hour, read-out: Average plasma conc.): 2740 ng/mL
- chemotherapeutic index relative to compounds B, D, E, F, G and J (times as high) (mice; Pseudomonas aeruginosa): 3 to 100 times
- LD50 relative to compounds A to G (times as high) (mice; mice): 2 to 10 times
- LD50 at 168 h (in vivo; iv): 4520 mg/kg
- selectivity ratio (in vivo; iv): 1100
- LD50 at 168 h (in vivo; sc): > 6000 mg/kg
- selectivity ratio (in vivo; sc): > 3000
